One assay relates to S. aureus ΔClpP. The experiment in a line: Minimal inhibitory concentration, microbroth dilution. It is filed as cell-based, Staphylococcus aureus. To be noted: MIC; ClpP inactivated. In a few lines:
(§1)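 MICs were determined by CLSI broth microdilution, using two-fold compound dilutions from a final 200 μM and about 10^5 cfu/mL inoculum. Plates were incubated aerobically at 37 °C overnight. The MIC was read visually as the lowest concentration preventing growth.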

Another assay deals with E. faecails. The description is as above. It is filed as cell-based. To be noted: Enterococcus faecalis. The essentials:
as §1

Another assay deals with S. aureus ATCC 29213. The description is as above. It is filed as cell-based. The following applies: Staphylococcus aureus. The essentials: as §1
Another assay has as its system S. aureus USA 300. The assay is described as above. To be noted: Staphylococcus aureus. The class given is cell-based. In a few lines: as §1
A further assay concerns MRSA NRS70. Described as above. It is filed as cell-based. To be noted: Staphylococcus aureus. The essentials:
as §1

A further assay has as its target T1, S. aureus ClpP (Sa-ClpP) (Staphylococcus aureus, UniProt Q2G036).
T1 construct: made in house; host or cells: E. coli BL21 (DE3)
The assay can be described thus: Casein-BODIPY digestion assay (ClpP activation). It is filed as biochemical.

Where [1] appears, read: MIC, read-out: Minimal Inhibitory Concentrations (μM) E. faecails.
Where [2] appears, read: ATCC29213, MIC, read-out: Minimal Inhibitory Concentrations (μM) S. aureus ATCC 29213.
Setting [3] is: USA300, MIC, read-out: Minimal Inhibitory Concentrations (μM) S. aureus USA 300.
Setting [4] is: MIC, read-out: Minimal Inhibitory Concentrations (μM) MRSA NRS70.
Setting [5] is: read-out: Minimal Inhibitory Concentrations (μM) E. faecails, MIC.
Where [6] appears, read: ATCC29213, read-out: Minimal Inhibitory Concentrations (μM) S. aureus ATCC 29213, MIC.
Where [7] appears, read: USA300, read-out: Minimal Inhibitory Concentrations (μM) S. aureus USA 300, MIC.
The mark [8] stands for this setting: read-out: Minimal Inhibitory Concentrations (μM) MRSA NRS70, MIC.

This note sets out measurements from patent US10570179B2, “Substituted urea depsipeptide analogs as activators of the CLPP endopeptidase” (priority 2016, dated 2020).

Structures are written as SMILES. Converted amounts (≈) assume the structure as drawn. Like-named read-outs stand apart in the source and are kept apart here. Numbered stars: 1 amine (or outer) side, 2 acyl side, 3 side chain; on linkers, the order of the positions; unused ones are H or OH. Bridge positions count the residues as written; N and C are the ends. Square brackets hold non-standard residues; d marks the D form. Peptide text beside a SMILES is read from it. * marks the point of attachment. Morpholine(3S-CO) = O=C(O)[C@@H]1COCCN1; Phe(3-Me) = Cc1cccc(C[C@H](N)C(=O)O)c1; Pro(4S-Me) = C[C@@H]1CN[C@H](C(=O)O)C1; X4 = O=C1CN([*:1])[C@H](C(=O)[*:2])CN1; Pro(4R-Me) = C[C@H]1CN[C@H](C(=O)O)C1; Hyp = O=C(O)[C@@H]1C[C@@H](O)CN1; NH(3-Cl-phenyl) = Clc1cccc(N*)c1; NH(4-Cl-phenyl) = Clc1ccc(N*)cc1; aThr = C[C@H](O)[C@H](N)C(=O)O; Pip = O=C(O)[C@@H]1CCCCN1; CO = O=C([*:1])[*:2]; X2 = Fc1cc(N*)ccc1Cl

T1 sequence (Q2G036 whole entry): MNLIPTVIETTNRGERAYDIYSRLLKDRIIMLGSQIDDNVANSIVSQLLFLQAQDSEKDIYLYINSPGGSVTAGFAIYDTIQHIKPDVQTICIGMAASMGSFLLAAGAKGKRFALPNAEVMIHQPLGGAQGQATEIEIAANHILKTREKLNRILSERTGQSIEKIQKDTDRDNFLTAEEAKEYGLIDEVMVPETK

As for `CCc1ccc(NC(=O)N[C@@H](Cc2cccc(C)c2)C(=O)N[C@H]2COC(=O)[C@@H]3C[C@@H](C)CN3C(=O)[C@H](C)NC(=O)[C@@H]3CCCCN3C(=O)[C@@H]3CCCN3C2=O)cc1` [Compound 70, (S)—N-((2R,6S,8AS,14AS,20S,23AS)-2,6-DIMETHYL-5,8,14,19,23-PENTAOXOOCTADECAHYDRO-1H,5H,14H,19H-PYRIDO[2,1-I]DIPYRROLO[2,1-C:2′,1′-L][1]OXA[4,7,10,13]TETRAAZACYCLOHEXADECIN-20-YL)-2-(3-(4-ETHYLPHENYL)UREIDO)-3-(M-TOLYL)PROPANAMIDE], in the assay on S. aureus ΔClpP, the “Minimal Inhibitory Concentrations (μM) S. aureus ΔClpP” value was above 20 µM. Besides, the MIC worked out at 0.156 µM (≈ 0.123 µg/mL) with E. faecails (setting [1]), 0.625 µM (≈ 0.491 µg/mL) in the assay with S. aureus ATCC 29213 (setting [2]), 0.313 µM (≈ 0.246 µg/mL) in the assay on S. aureus USA 300 (setting [3]) and 0.313 µM (≈ 0.246 µg/mL) in the assay on MRSA NRS70 (setting [4]). The same compound gave an EC50 on S. aureus ClpP (Sa-ClpP) of 290 ± 100 nM.

As for `Cc1cccc(C[C@H](NC(=O)Nc2ccc(Cl)cc2)C(=O)N[C@H]2COC(=O)[C@@H]3C[C@@H](C)CN3C(=O)[C@H](C)NC(=O)[C@@H]3CCCCN3C(=O)[C@@H]3CCCN3C2=O)c1` [Compound 71, (S)-2-(3-(4-CHLOROPHENYL)UREIDO)-N-((2R,6S,8AS,14AS,20S,23AS)-2,6-DIMETHYL-5,8,14,19,23-PENTAOXOOCTADECAHYDRO-1H,5H,14H,19H-PYRIDO[2,1-I]DIPYRROLO[2,1-C:2′,1′-L][1]OXA[4,7,10,13]TETRAAZACYCLOHEXADECIN-20-YL)-3-(M-TOLYL)PROPANAMIDE], the “Minimal Inhibitory Concentrations (μM) S. aureus ΔClpP” value in the assay with S. aureus ΔClpP was above 20 µM. In addition, the MIC with E. faecails (setting [5]) is 0.313 µM (≈ 0.248 µg/mL); with S. aureus ATCC 29213 (setting [6]), 0.625 µM (≈ 0.495 µg/mL); in the assay on S. aureus USA 300 (setting [7]) it was 0.625 µM (≈ 0.495 µg/mL); with MRSA NRS70 (setting [8]) it was 0.313 µM (≈ 0.248 µg/mL). At S. aureus ClpP (Sa-ClpP), this compound had an EC50 of 250 ± 100 nM.

With `Cc1cccc(C[C@H](NC(=O)Nc2ccc(Cl)cc2)C(=O)N[C@@H]2C(=O)N3C[C@H](O)C[C@H]3C(=O)N3CCOC[C@H]3C(=O)N[C@@H](C)C(=O)N3C[C@H](C)C[C@H]3C(=O)O[C@H]2C)c1` [Compound 73, (S)-2-(3-(4-CHLOROPHENYL)UREIDO)-N-((6AS,8R,12S,13S,15AS,17R,21S,23AS)-8-HYDROXY-13,17,21-TRIMETHYL-6,11,15,20,23-PENTAOXOOCTADECAHYDRO-6H,11H,15H-[1,4]OXAZINO[3,4-I]DIPYRROLO[2,1-C:2′,1′-L][1]OXA[4,7,10,13]TETRAAZACYCLOHEXADECIN-12-YL)-3-(M-TOLYL)PROPANAMIDE] ({NH(4-Cl-phenyl)-CO}-[Phe(3-Me)][aThr][Hyp][Morpholine(3S-CO)]A[Pro(4R-Me)]; ester 2-C), the “Minimal Inhibitory Concentrations (μM) S. aureus ΔClpP” value in the assay with S. aureus ΔClpP was above 20 µM. In addition, the MIC turned out to be 0.625 µM (≈ 0.515 µg/mL) with E. faecails (setting [5]), 2.5 µM (≈ 2.06 µg/mL) in the assay on S. aureus ATCC 29213 (setting [6]), 0.625 µM (≈ 0.515 µg/mL) in the assay with S. aureus USA 300 (setting [7]) and 2.5 µM (≈ 2.06 µg/mL) with MRSA NRS70 (setting [8]). The EC50 at S. aureus ClpP (Sa-ClpP) came to 250 ± 100 nM.

Regarding `Cc1cccc(C[C@H](NC(=O)Nc2cccc(Cl)c2)C(=O)N[C@@H]2C(=O)N3C[C@H](O)C[C@H]3C(=O)N3CCOC[C@H]3C(=O)N[C@@H](C)C(=O)N3C[C@H](C)C[C@H]3C(=O)O[C@H]2C)c1` [Compound 74, (S)-2-(3-(3-CHLOROPHENYL)UREIDO)-N-((6AS,8R,12S,13S,15AS,17R,21S,23AS)-8-HYDROXY-13,17,21-TRIMETHYL-6,11,15,20,23-PENTAOXOOCTADECAHYDRO-6H,11H,15H-[1,4]OXAZINO[3,4-I]DIPYRROLO[2,1-C:2′,1′-L][1]OXA[4,7,10,13]TETRAAZACYCLOHEXADECIN-12-YL)-3-(M-TOLYL)PROPANAMIDE] ({NH(3-Cl-phenyl)-CO}-[Phe(3-Me)][aThr][Hyp][Morpholine(3S-CO)]A[Pro(4R-Me)]; ester 2-C), the “Minimal Inhibitory Concentrations (μM) S. aureus ΔClpP” value in the assay with S. aureus ΔClpP is above 20 µM. Also, the MIC in the assay with E. faecails (setting [5]) is above 20 µM; in the assay on S. aureus ATCC 29213 (setting [6]), 5 µM (≈ 4.12 µg/mL); in the assay with S. aureus USA 300 (setting [7]), 1.25 µM (≈ 1.03 µg/mL); with MRSA NRS70 (setting [8]), 5 µM (≈ 4.12 µg/mL). A half-maximal effect on S. aureus ClpP (Sa-ClpP) (EC50) was put at 250 ± 100 nM.

On to `Cc1cccc(C[C@H](NC(=O)Nc2ccc(Cl)cc2)C(=O)N[C@@H]2C(=O)N3CCC[C@H]3C(=O)N3CC(=O)NC[C@H]3C(=O)N[C@@H](C)C(=O)N3C[C@H](C)C[C@H]3C(=O)O[C@H]2C)c1` [Compound 75, (S)-2-(3-(4-CHLOROPHENYL)UREIDO)-3-(M-TOLYL)-N-((6AS,12S,13S,15AS,17R,21S,23AS)-13,17,21-TRIMETHYL-3,6,11,15,20,23-HEXAOXOOCTADECAHYDRO-2H,6H,11H,15H-PYRAZINO[2,1-I]DIPYRROLO[2,1-C:2′,1′-L][1]OXA[4,7,10,13]TETRAAZACYCLOHEXADECIN-12-YL)PROPANAMIDE] ({NH(4-Cl-phenyl)-CO}-[Phe(3-Me)][aThr]P[X4]A[Pro(4R-Me)]; ester 2-C), for which the “Minimal Inhibitory Concentrations (μM) S. aureus ΔClpP” value in the assay on S. aureus ΔClpP was above 20 µM. The MIC in the assay on E. faecails (setting [5]) is above 20 µM; in the assay on S. aureus ATCC 29213 (setting [6]), 20 µM (≈ 16.4 µg/mL); in the assay on S. aureus USA 300 (setting [7]) it was 10 µM (≈ 8.21 µg/mL); in the assay on MRSA NRS70 (setting [8]) it was 20 µM (≈ 16.4 µg/mL). The concentration for a half-maximal effect (EC50) at S. aureus ClpP (Sa-ClpP) is 1210 ± 1000 nM.

For `Cc1cccc(C[C@H](NC(=O)Nc2cccc(Cl)c2)C(=O)N[C@@H]2C(=O)N3CCC[C@H]3C(=O)N3CC(=O)NC[C@H]3C(=O)N[C@@H](C)C(=O)N3C[C@H](C)C[C@H]3C(=O)O[C@H]2C)c1` [Compound 76, (S)-2-(3-(3-CHLOROPHENYL)UREIDO)-3-(M-TOLYL)-N-((6AS,12S,13S,15AS,17R,21S,23AS)-13,17,21-TRIMETHYL-3,6,11,15,20,23-HEXAOXOOCTADECAHYDRO-2H,6H,11H,15H-PYRAZINO[2,1-I]DIPYRROLO[2,1-C:2′,1′-L][1]OXA[4,7,10,13]TETRAAZACYCLOHEXADECIN-12-YL)PROPANAMIDE] ({NH(3-Cl-phenyl)-CO}-[Phe(3-Me)][aThr]P[X4]A[Pro(4R-Me)]; ester 2-C), the “Minimal Inhibitory Concentrations (μM) S. aureus ΔClpP” value in the assay with S. aureus ΔClpP was above 20 µM. The MIC in the assay with E. faecails (setting [5]), in the assay with S. aureus ATCC 29213 (setting [6]), in the assay with S. aureus USA 300 (setting [7]) and in the assay on MRSA NRS70 (setting [8]) was above 20 µM each time. In addition, at S. aureus ClpP (Sa-ClpP), the concentration giving a half-maximal response (EC50) worked out at 5020 nM.

Take `Cc1cccc(C[C@H](NC(=O)Nc2ccc(Cl)c(F)c2)C(=O)N[C@@H]2C(=O)N3C[C@H](O)C[C@H]3C(=O)N3CCCC[C@H]3C(=O)N[C@@H](C)C(=O)N3C[C@@H](C)C[C@H]3C(=O)O[C@H]2C)c1` [Compound 77, (S)-2-(3-(4-CHLORO-3-FLUOROPHENYL)UREIDO)-N-((2S,6S,8AS,14AS,16R,20S,21S,23AS)-16-HYDROXY-2,6,21-TRIMETHYL-5,8,14,19,23-PENTAOXOOCTADECAHYDRO-1H,5H,14H,19H-PYRIDO[2,1-I]DIPYRROLO[2,1-C:2′,1′-L][1]OXA[4,7,10,13]TETRAAZACYCLOHEXADECIN-20-YL)-3-(M-TOLYL)PROPANAMIDE] ({X2-CO}-[Phe(3-Me)][aThr][Hyp][Pip]A[Pro(4S-Me)]; ester 2-C): in the assay on S. aureus ΔClpP, the “Minimal Inhibitory Concentrations (μM) S. aureus ΔClpP” value was 5 µM. The MIC in the assay on E. faecails (setting [1]) amounted to 1.25 µM (≈ 1.05 µg/mL); in the assay on S. aureus ATCC 29213 (setting [2]), 0.625 µM (≈ 0.525 µg/mL); in the assay on S. aureus USA 300 (setting [3]) it was 1.25 µM (≈ 1.05 µg/mL); with MRSA NRS70 (setting [4]), 0.625 µM (≈ 0.525 µg/mL). The same compound gave a half-maximal effective concentration (EC50) on S. aureus ClpP (Sa-ClpP) of 450 ± 200 nM.

For orientation: EC50 means the concentration at which the effect is half-maximal. Lower therefore signals an effect from little substance.
